Starred links: 1 amine or outer side, 2 acyl side, 3 side chain; linkers in the order of their positions; H or OH if unused. Positions of bridges follow the written chain, without caps; N, C: chain ends. Non-standard residues stand in square brackets, D forms with d. Primed or numbered codes have the meaning given here. Chains are numbered I, II in the order given. No end group written: not given here. *: point of attachment. X1 = O=C(CCOCCOCCOCCN(CCOCCOCCOCCn1cc(CCC(=O)[*:2])nn1)CCOCCOCCOCCn1cc(CCC(=O)[*:3])nn1)[*:1]; X3 = O=C(CCc1cn(CCOCCOCCOCCN(CCOCCOCCOCCC(=O)[*:3])CCOCCOCCOCCn2cc(CCC(=O)[*:2])nn2)nn1)[*:1]; PYA(3) = 4-pentynoic acid, on D-Lys NZ, clicked (triazole) to the linker azide; X2 = O=C(CCSCCC(=O)[*:1])N1CN(C(=O)CC[*:2])CN(C(=O)CC[*:3])C1; TATA = O=C(CC[*:1])N1CN(C(=O)CC[*:2])CN(C(=O)CC[*:3])C1; Dip = N[C@H](C(=O)O)C(c1ccccc1)c1ccccc1; 1Nal = N[C@@H](Cc1cccc2ccccc12)C(=O)O; d1Nal = N[C@H](Cc1cccc2ccccc12)C(=O)O; Hyp = O=C(O)[C@@H]1C[C@@H](O)CN1; hArg = N=C(N)NCCCC[C@H](N)C(=O)O; tBuAla = CC(C)(C)C[C@H](N)C(=O)O; Aad = N[C@@H](CCCC(=O)O)C(=O)O; Cysteamide = C(CS[*:3])N[*:1]; Cba = N[C@@H](CC1CCC1)C(=O)O; dK(PYA) = not defined here; Nle = CCCC[C@H](N)C(=O)O; Pent4ynoyl = C#CCCC(=O)*; Mpa = O=C(O)CCS

The series addresses CD137 (Homo sapiens, UniProt Q07011). In words: CD137 reporter assay (Promega, Jurkat cells) in co-culture with EphA2-expressing tumor cells (A549, PC3, HT29). The series is classed as cell-based. Details: host or cells: Jurkat reporter cells. Particulars: for fold induction / Emax (fold induction over background): CD137 reporter coculture assay with PC3 tumor cells; for fold induction: read-out: Emax (fold induction over background); for EC50: EC50, CD137 reporter coculture assay with PC3 tumor cells; for Fold Improvement over BCY9173, EC50 (nM) / Fold Improvement over Emax: co-culture with PC3; for Fold Improvement over Emax: versus BCY9173. As for the experimental part:
Culture medium, referred to as R1 media, is prepared by adding 1% FBS to RPMI-1640 (component of Promega kit CS196005). Serial dilutions of test articles in R1 are prepared in a sterile 96 well-plate. Add 25 μL per well of test articles or R1 (as a background control) to designated wells in a white cell culture plate. Tumor cells* are harvested and resuspended at a concentration of 400,000 cells/mL in R1 media. Twenty five (25) μL/well of tumor cells are added to the white cell culture plate. Jurkat cells (Promega kit CS196005, 0.5 mL) are thawed in the water bath and then added to 5 ml pre-warmed R1 media. Twenty five (25) μL/well of Jurkat cells are then added to the white cell culture plate. Incubate the cells and test articles for 6 h at 37° C., 5% CO2. At the end of 6 h, add 75 μL/well Bio-Glo™ reagent (Promega) and incubate for 10 min before reading luminescence in a plate reader (Clariostar, BMG). The fold change relative to cells alone (Jurkat cells+Cell line used in co-culture) is calculated and plotted in GraphPad Prism as log(agonist) vs response to determine EC50 (nM) and Fold Induction over background (Max).
The tumor cell types used in co-culture for EphA2 are A549, PC3 and HT29. The tumor cell type used in co-culture for PD-L1 is RKO.

Sequence of CD137 (Q07011 24-255): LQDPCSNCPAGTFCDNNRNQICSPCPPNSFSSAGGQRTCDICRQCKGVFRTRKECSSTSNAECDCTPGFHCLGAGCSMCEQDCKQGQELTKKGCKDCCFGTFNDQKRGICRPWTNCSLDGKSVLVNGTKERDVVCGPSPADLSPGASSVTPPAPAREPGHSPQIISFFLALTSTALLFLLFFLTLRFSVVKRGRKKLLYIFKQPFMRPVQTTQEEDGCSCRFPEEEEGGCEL

For the substance “I: [d1Nal][hArg]DC[Hyp][Cba]VNPLCLEP[dA]WTC[dA]-NH2 / II: Ac-C[tBuAla]PE[dK]PYCFADPY[Nle]CA-NH2 / III: Ac-C[tBuAla]PE[dK]PYCFADPY[Nle]CA-NH2 (linker I:4-I:11-I:18, II:1-II:8-II:15, III:1-III:8-III:15 via TATA; linker I:N-II:5-III:5 via X1) [BCY13278]”, the fold induction worked out at 37.9 and the response was half-maximal at 0.14 nM (EC50). For the substance “BCY12725: EphA2:CD137 1:2; BCY9594 + 2x BCY12147; linker N-(acid-PEG3)-N-bis(PEG3-azide) (peptide 1 A[hArg]DC[Hyp]LVNPLCLHP[dD]W[hArg]C; peptide 2 Ac-C[tBuAla]PE[dK](PYA(3))PYCFANPY[Nle]C; linker I:4-I:11-I:18, II:1-II:8-II:15 via TATA; not fully specified (N-terminus, bridges); also: chain 2 present twice on linker, EphA2:CD137 1:2)”, the “Fold Improvement over BCY9173, EC50 (nM)” value was 0.1 fold and the “Fold Improvement over Emax” value was determined as 0.7 fold. On to “I: A[hArg]DC[Hyp]LVNPLCLHP[d1Nal]W[hArg]C-NH2 / II: Ac-C[tBuAla]PE[dK]PYCFADPY[Nle]CA-NH2 / III: Ac-C[tBuAla]PE[dK]PYCFADPY[Nle]CA-NH2 (linker I:4-I:11-I:18, II:1-II:8-II:15, III:1-III:8-III:15 via TATA; linker I:N-II:5-III:5 via X1) [BCY13270]”, for which the fold induction was found to be 42.5 and a half-maximal effect (EC50) was put at 0.1 nM. As to “I: C[Hyp]LVNPLCL[Dip]P[dD]WTC-NH2 / II: [Mpa][tBuAla]PE[dK]PYCFADPY[Nle]C-NH2 / III: [tBuAla]PE[dK]PYCFADPY[Nle]C-NH2 (linker I:1-I:8-I:15, II:1-II:8-II:15 via TATA; linker I:N-II:5-III:4 via X1; linker III:N-III:7-III:14 via X2) [BCY13343]”, the “Emax (fold induction over background)” value stood at 44.00 and the EC50 is 0.11 nM. As to “BCY14334: EphA2:CD137 1:2; BCY14313 + 2x BCY8928; linker N-(acid-PEG3)-N-bis(PEG3-azide) (peptide 1 A[hArg]DC[Hyp]LVNPLCLKP[dD]W[hArg]C; peptide 2 Ac-C[tBuAla]PE[dK](Pent4ynoyl)PYCFADPY[Nle]CA; linker I:4-I:11-I:18, II:1-II:8-II:15 via TATA (inferred); not fully specified (some residues, N-terminus); also: 1:2 complex: chain 1 N-terminus joined to dLys(PYA)5 of two chain 2 copies via N-(acid-PEG3)-N-bis(PEG3-azide) linker)”, the “Fold Improvement over BCY9173, EC50 (nM)” value is on record as 7.21 fold and the “Fold Improvement over Emax” value was 1.62 fold.

In the case of “I: A[hArg]EC[Hyp]LVNPLCLHP[dE]W[hArg]C-NH2 / II: Ac-C[tBuAla]PE[dK]PYCFADPY[Nle]CA-NH2 / III: Ac-C[tBuAla]PE[dK]PYCFADPY[Nle]CA-NH2 (linker I:4-I:11-I:18, II:1-II:8-II:15, III:1-III:8-III:15 via TATA; linker I:N-II:5-III:5 via X1) [BCY12978]”, the fold induction is 78.1.

With “I: A[hArg]DC[Hyp]LVNPLCLEP[dD]WTC-NH2 / II: [Mpa][tBuAla]EE[dK]PYCFADPY[Nle]C-NH2 / III: [tBuAla]EE[dK]PYCFADPY[Nle]C-NH2 (linker I:4-I:11-I:18, II:1-II:8-II:15 via TATA; linker I:N-II:5-III:4 via X1; linker III:N-III:7-III:14 via X2) [BCY13140]”, the “Emax (fold induction over background)” value turned out to be 46.70 and the EC50 was 0.12 nM. Take “I: Ac-A[hArg]DC[Hyp]KVNPLCLHP[dD]W[hArg]C-NH2 / II: Ac-C[tBuAla]PE[dK]PYCFADPY[Nle]CA-NH2 / III: Ac-C[tBuAla]PE[dK]PYCFADPY[Nle]CA-NH2 (linker I:4-I:11-I:18, II:1-II:8-II:15, III:1-III:8-III:15 via TATA; linker I:6-II:5-III:5 via X1) [BCY12975]”: the fold induction is 68.8 and the EC50 was 0.16 nM. Take “I: A[hArg]DC[Hyp]LVNPLCLHP[dE]W[hArg]C-NH2 / II: Ac-C[tBuAla]PE[dK]PYCFADPY[Nle]CA-NH2 / III: Ac-C[tBuAla]PE[dK]PYCFADPY[Nle]CA-NH2 (linker I:4-I:11-I:18, II:1-II:8-II:15, III:1-III:8-III:15 via TATA; linker I:N-II:5-III:5 via X1) [BCY12977]”: the fold induction was 67.2 and the EC50 came out at 0.08 nM. For “I: Ac-A[hArg]DC[Hyp]LVNPLCLKP[dD]W[hArg]C-NH2 / II: Ac-C[tBuAla]PE[dK]PYCFADPY[Nle]CA-NH2 / III: Ac-C[tBuAla]PE[dK]PYCFADPY[Nle]CA-NH2 (linker I:4-I:11-I:18, II:1-II:8-II:15, III:1-III:8-III:15 via TATA; linker I:13-II:5-III:5 via X1) [BCY12974]”, the fold induction was 59.6 and the EC50 was 0.18 nM. “I: Ac-C[tBuAla]PE[dK]PYCFADPY[Nle]CA-NH2 / II: Ac-C[tBuAla]PE[dK]PYCFADPY[Nle]CA-NH2 / III: C[Hyp]LVNPLCL[1Nal]P[dD]WTC-NH2 (linker I:1-I:8-I:15, II:1-II:8-II:15, III:1-III:8-III:15 via TATA; linker I:5-II:5-III:N via X3) [BCY13273]”: the “Emax (fold induction over background)” value is given as 51.27. On to “BCY12726: EphA2:CD137 1:2; BCY9594 + 2x BCY12145; linker N-(acid-PEG3)-N-bis(PEG3-azide) (peptide 1 A[hArg]DC[Hyp]LVNPLCLHP[dD]W[hArg]C; peptide 2 Ac-C[tBuAla]PE[dK(PYA)]PYCFAEPY[Nle]C; linker I:4-I:11-I:18 via TATA (inferred); linker II:1-II:8-II:15 via TATA; linker II:N-II:5 via N‑(acid-PEG3)‑N‑bis(PEG3-azide); not fully specified (N-terminus); reading uncertain; also: chain 2 twice (1:2 complex))”, for which the “Fold Improvement over BCY9173, EC50 (nM)” value was 0.2 fold and the “Fold Improvement over Emax” value worked out at 0.9 fold.

“I: A[hArg]DC[Hyp]LVNPLCL[Aad]P[dD]W[hArg]C-NH2 / II: Ac-C[tBuAla]PE[dK]PYCFADPY[Nle]CA-NH2 / III: Ac-C[tBuAla]PE[dK]PYCFADPY[Nle]CA-NH2 (linker I:4-I:11-I:18, II:1-II:8-II:15, III:1-III:8-III:15 via TATA; linker I:N-II:5-III:5 via X1) [BCY13286]”: the fold induction stood at 34.1 and the EC50 was 0.11 nM.

In the case of “I: C[Hyp][Cba]VNPLCL[Dip]P[dD]WTC[dA]-NH2 / II: Ac-C[tBuAla]PE[dK]PYCFADPY[Nle]CA-NH2 / III: Ac-C[tBuAla]PE[dK]PYCFADPY[Nle]CA-NH2 (linker I:1-I:8-I:15, II:1-II:8-II:15, III:1-III:8-III:15 via TATA; linker I:N-II:5-III:5 via X1) [BCY13053]”, the “Emax (fold induction over background)” value turned out to be 40.33 and the EC50 was 0.1 nM. Regarding “I: Ac-A[hArg]DC[Hyp]LVNPLCKHP[dD]W[hArg]C-NH2 / II: Ac-C[tBuAla]PE[dK]PYCFADPY[Nle]CA-NH2 / III: Ac-C[tBuAla]PE[dK]PYCFADPY[Nle]CA-NH2 (linker I:4-I:11-I:18, II:1-II:8-II:15, III:1-III:8-III:15 via TATA; linker I:12-II:5-III:5 via X1) [BCY12976]”, the fold induction is 73.2 and the EC50 is 0.18 nM. For “BCY12731: EphA2:CD137 1:2; BCY9594 + 2x BCY12354; linker N-(acid-PEG3)-N-bis(PEG3-azide) (peptide 1 A[hArg]DC[Hyp]LVNPLCLHP[dD]W[hArg]C; peptide 2 [Mpa][tBuAla]PE[dK(PYA)]PYCFADPY[Nle][Cysteamide]; linker I:4-I:11-I:18 via TATA (inferred); linker II:1-II:8-II:15 via TATA; not fully specified (N-terminus); reading uncertain; also: chain 2 twice (1:2 complex), linker at chain B 5 to a chain's N-terminus via N-(acid-PEG3)-N-bis(PEG3-azide))”, the “Fold Improvement over BCY9173, EC50 (nM)” value worked out at 0.2 fold and the “Fold Improvement over Emax” value worked out at 1.5 fold. Turning to “I: A[hArg]DC[Hyp][Cba]VNPLCLEP[dD]WTC-NH2 / II: Ac-C[tBuAla]PE[dK]PYCFADPY[Nle]CA-NH2 / III: Ac-C[tBuAla]PE[dK]PYCFADPY[Nle]CA-NH2 (linker I:4-I:11-I:18, II:1-II:8-II:15, III:1-III:8-III:15 via TATA; linker I:N-II:5-III:5 via X1) [BCY13051]”, the “Emax (fold induction over background)” value is recorded as 37.05 and the EC50 stood at 0.21 nM. In the case of “I: [dA][dA]DC[Hyp]LVNPLCLEP[dD]WTC-NH2 / II: Ac-C[tBuAla]PE[dK]PYCFADPY[Nle]CA-NH2 / III: Ac-C[tBuAla]PE[dK]PYCFADPY[Nle]CA-NH2 (linker I:4-I:11-I:18, II:1-II:8-II:15, III:1-III:8-III:15 via TATA; linker I:N-II:5-III:5 via X1) [BCY13281]”, the fold induction worked out at 35.6 and the EC50 worked out at 0.17 nM.

A word on the EC50: it is the midpoint of the concentration-response curve. The low end stands for a more potent agent, the high end for a less potent agent.

(Values after US20230129258A1, “HETEROTANDEM BICYCLIC PEPTIDE COMPLEXES” (BicycleTx Limited, priority 2019, published 2023).)
